Literature values as cited in US20060046961A1, “Controlled and directed local delivery of anti-inflammatory compositions” (priority 2004, published 2006).

Test system: PGE2 production
Settings: cell culture

For COc1ccc2cc(CC(=O)O)ccc2c1 [6-methoxy-2-napthylacetic acid], the PGE2 production is given as “suppress” and the local inflammation is given as “suppress”.
